The text below walks through data of ChEMBL document CHEMBL4425137, “Selective 5-HT2C receptor agonists: Design and synthesis of pyridazine-fused azepines” (Bioorg Med Chem Lett, 2016).

As a reminder, the logD is lipophilicity at a set pH, counting ionised and neutral species. Higher therefore signals a more lipophilic compound. The term microsomal CLint denotes the rate of metabolic loss divided by the concentration. A high value points to faster metabolism. A word on the Papp: it is a coefficient for how fast a substance crosses the barrier. Lower therefore signals slow passage. As usually defined, the Ki is the equilibrium dissociation constant of an inhibitor or competing ligand from its target. A lower Ki goes with higher affinity. One may read the EC50 as the concentration giving half of the maximal effect. For orientation: efflux ratio means the permeability from basolateral to apical divided by that in the opposite direction, in the common usage. For orientation: Emax means the greatest response seen or fitted, relative to the assay's reference.

The structures appear in SMILES notation.

One data set can be described thus: physchem. The settings on record: octanol/water.
Data set [1] in a line: in vitro. The settings on record: human, liver microsomes. A general note: Liver microsomes are vesicles of endoplasmic reticulum, rich in cytochrome P450 enzymes.
Description: (§1) Intrinsic clearance in human liver microsomes
Data set [2] is described as follows: in vitro. The settings on record: dog, MDCK, permeability.
Description: Permeability in RRCK cells
The target in data set [3] is T1, 5-hydroxytryptamine receptor 2C (Homo sapiens, UniProt P28335).
T1 sequence (P28335 whole entry): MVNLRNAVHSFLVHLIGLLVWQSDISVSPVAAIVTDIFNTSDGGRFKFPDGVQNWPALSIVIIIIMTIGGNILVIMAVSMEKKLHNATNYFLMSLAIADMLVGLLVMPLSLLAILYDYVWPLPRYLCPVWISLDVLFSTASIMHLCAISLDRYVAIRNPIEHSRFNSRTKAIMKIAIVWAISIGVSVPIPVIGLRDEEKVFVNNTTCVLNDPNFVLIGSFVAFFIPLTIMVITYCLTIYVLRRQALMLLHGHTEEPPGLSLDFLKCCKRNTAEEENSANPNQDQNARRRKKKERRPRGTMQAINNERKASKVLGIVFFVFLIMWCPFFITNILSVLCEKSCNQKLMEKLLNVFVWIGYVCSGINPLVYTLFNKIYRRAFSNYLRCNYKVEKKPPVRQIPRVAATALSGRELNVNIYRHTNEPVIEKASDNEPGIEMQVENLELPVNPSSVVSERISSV
Kind of data set: biochemical.
Description: Displacement of [3H]-mesulergine from recombinant human 5-HT2C receptor transfected in Swiss mouse 3T3 cells after 150 mins by scintillation proximity assay

Data set [4] has as its target T2, 5-hydroxytryptamine receptor 2B (Homo sapiens, UniProt P41595). Kind of data set: Agonist activity at recombinant human 5-HT2B receptor transfected in CHOK1 cells assessed as calcium mobilization by FLIPR assay. The data set is classed as cell-based.
For another data set, the system named is MDR1. The data set is described as follows: in vitro. The settings on record: dog, MDCK-MDR1, Ratio.
Another data set addresses 5-HT2B receptor (Homo sapiens, UniProt P41595). The data set is described as follows: in vitro.
Data set [5] deals with T1, 5-hydroxytryptamine receptor 2C.
Description: Agonist activity at recombinant human 5-HT2C receptor transfected in CHOK1 cells assessed as calcium mobilization by FLIPR assay
For data set [6] the following is noted: human, microsomes.
Description: as §1
For data set [7], the target named is T2, 5-hydroxytryptamine receptor 2B. Particulars: 10 µM.
Description: (§2) Agonist activity at recombinant human 5-HT2B receptor transfected in CHOK1 cells assessed as calcium mobilization at 10 uM by FLIPR assay
The conditions of data set [8]: dog, mdckii-le.
Description: Permeability in RRCK cells

T2 sequence (P41595 whole entry): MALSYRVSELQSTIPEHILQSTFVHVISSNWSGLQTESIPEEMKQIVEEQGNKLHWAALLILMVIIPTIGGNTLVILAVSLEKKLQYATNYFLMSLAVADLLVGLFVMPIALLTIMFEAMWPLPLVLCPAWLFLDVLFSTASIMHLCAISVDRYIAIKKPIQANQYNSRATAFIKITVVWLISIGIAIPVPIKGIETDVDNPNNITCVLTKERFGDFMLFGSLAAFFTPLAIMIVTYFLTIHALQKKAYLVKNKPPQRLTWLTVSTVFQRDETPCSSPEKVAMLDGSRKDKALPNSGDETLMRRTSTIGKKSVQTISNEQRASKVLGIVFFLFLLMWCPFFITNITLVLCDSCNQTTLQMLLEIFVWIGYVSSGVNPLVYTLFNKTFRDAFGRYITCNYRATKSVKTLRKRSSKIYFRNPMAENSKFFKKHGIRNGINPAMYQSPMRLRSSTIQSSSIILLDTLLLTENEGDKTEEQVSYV
Chain of 5-HT2B receptor (P41595 whole entry): as above
Description for 5-HT2B receptor: as §2
Description for MDR1: Efflux ratio of permeability from basolateral to apical side over apical to basolateral side in MDCK cells expressing MDR1
Description for physchem: Lipophilicity, log D of the compound

In the case of `Clc1ccc(Cc2cc3c(nn2)CCNCC3)cc1`, the logD in “physchem” was 0.8. Also, the microsomal CLint in the data set “in vitro [1]” is under 7 µL/min/mg. The same compound had a Papp in “in vitro [2]” of 13 ×10⁻⁶ cm/s. In addition, the affinity in data set [3], expressed as Ki, was 120 nM. Besides, the figures for the EC50 in [4] and in data set [5] were 410 nM and 310 nM, respectively. For the same compound, the efflux ratio with MDR1 came out at 1.3. Also, the Emax at 10 µM on 5-HT2B receptor is 63%.

`COc1ccccc1Cc1cc2c(nn1)CCNCC2` had a logD in “physchem” of 0.1. Further, the microsomal CLint in “in vitro [1]” worked out at 9 µL/min/mg. The compound further had a Papp in the data set “in vitro [2]” of 16 ×10⁻⁶ cm/s. Also, affinity in [3] was put at a Ki of 550 nM. For the same compound, the efflux ratio in the data set on MDR1 was 1.9. This compound showed an Emax at 10 µM at 5-HT2B receptor of 40%. The same compound had an EC50 in [5] of over 10000 nM.

On to `O=c1[nH]c2c(nc1Cc1ccccc1)CCNCC2`, for which the logD in “physchem” was -0.1. The same compound displayed a Ki in [3] of 110 nM. Further, the efflux ratio in the data set on MDR1 amounted to 3. At 5-HT2B receptor, this compound registered an Emax at 10 µM of 24%. For the same compound, in [5], a half-maximal effect (EC50) was put at 70 nM. Moreover, the CLH in data set [6] is under 8000 µL/min/mg.

With `c1ccc(Cc2cc3c(nn2)CCNCC3)cc1`, in “physchem”, the logD was 0. The same compound came in with a microsomal CLint in “in vitro [1]” of under 7 µL/min/mg. Besides, in the data set “in vitro [2]”, the Papp stood at 14 ×10⁻⁶ cm/s. In data set [3], affinity was put at a Ki of 80 nM. In addition, the efflux ratio in the data set on MDR1 came to 1. At 5-HT2B receptor, this compound had an Emax at 10 µM of 29%. This compound also registered an EC50 in data set [5] of 130 nM.

As to `Clc1ccccc1Cc1cc2c(nn1)CCNCC2`, in the data set “physchem”, the logD worked out at 0.7. The microsomal CLint in “in vitro [1]” was under 7 µL/min/mg. In addition, the Papp in “in vitro [2]” turned out to be 15 ×10⁻⁶ cm/s. Further, the Ki in [3] was 200 nM. In addition, the results for the EC50 in data set [4] and in data set [5] were 800 nM and 310 nM, respectively. In the data set with MDR1, the efflux ratio amounted to 1.1. On 5-HT2B receptor, this compound came in with an Emax at 10 µM of 41%.

In the data set “physchem”, `O=c1cc2c(nn1Cc1ccccc1)CCNCC2` displayed a log distribution coefficient (logD) of 0.3. Moreover, the Papp in the data set “in vitro [2]” was 13 ×10⁻⁶ cm/s. Also, the Ki in data set [3] was determined as 10 nM. Further, in the data set with MDR1, the efflux ratio was determined as 1. The Emax at 10 µM on 5-HT2B receptor is 48%. This compound yielded an EC50 in data set [5] of 30 nM. In [6], this compound yielded a CLH of under 7000 µL/min/mg.

Consider `CC(c1ccccc1)c1cc2c(nn1)CCNCC2` (stereo in doubt; 15h), for which the maximum response (Emax) in [7] was found to be 55%. This compound also registered a Ki in data set [3] of 170 nM. Further, in [5], it took 110 nM to reach a half-maximal effect (EC50). In data set [8], this compound came in with a permeability of 14 ×10⁻⁶ cm/s.

In the data set “physchem”, `O=c1[nH]n(Cc2ccccc2)c2c1CCNCC2` came in with a logD of -0.1. In the data set “in vitro [2]”, this compound came in with a Papp of under 1 ×10⁻⁶ cm/s. Also, the efflux ratio in the data set on MDR1 was 1.2. The same compound had an Emax at 10 µM at 5-HT2B receptor of 0%. In addition, the EC50 in data set [5] was over 10000 nM. In [6], this compound yielded a CLH of under 7000 µL/min/mg.

As for `c1ccc(Cc2ncc3c(n2)CCNCC3)cc1`, the CLH in data set [6] is under 8000 µL/min/mg.

For `Cc1c(Cc2ccccc2)nnc2c1CCNCC2`, in “in vitro [1]”, the microsomal CLint is under 8 µL/min/mg. In “in vitro [2]”, the Papp was determined as 14 ×10⁻⁶ cm/s. For the same compound, the Ki in [3] was 520 nM. Further, in the data set on MDR1, the efflux ratio was determined as 1.9. A half-maximal effect in data set [5] (EC50) was put at 220 nM.

In turn, `FC(F)(F)c1cccc(Cc2cc3c(nn2)CCNCC3)c1` came in with a logD in “physchem” of 0.9. Further, in the data set “in vitro [1]”, the microsomal CLint was under 7 µL/min/mg. Also, the Papp in “in vitro [2]” worked out at 13 ×10⁻⁶ cm/s. Also, the Ki in data set [3] was 250 nM. In addition, the EC50 in [4] is 450 nM; in [5] it was 750 nM. Besides, the efflux ratio in the data set with MDR1 turned out to be 1.7. Besides, the Emax at 10 µM at 5-HT2B receptor was determined as 57%.

Take `O=c1c2c([nH]n1Cc1ccccc1)CCNCC2`: the logD in “physchem” was -0.5. This compound gave a Papp in “in vitro [2]” of under 1 ×10⁻⁶ cm/s. Besides, the Emax at 10 µM on 5-HT2B receptor is 0%. For the same compound, in data set [5], the EC50 is over 10000 nM.

In turn, `Fc1ccc(Cc2cc3c(nn2)CCNCC3)cc1` returned a logD in the data set “physchem” of 0.2. The compound also gave a microsomal CLint in “in vitro [1]” of under 7 µL/min/mg. Also, the Papp in the data set “in vitro [2]” is 14 ×10⁻⁶ cm/s. Further, the affinity in [3] corresponds to a Ki of 450 nM. The efflux ratio in the data set on MDR1 was 1.2. This compound also yielded an Emax at 10 µM at 5-HT2B receptor of 64%. This compound came in with an EC50 in data set [5] of over 10000 nM.

In “physchem”, `c1ccc(Cn2cc3c(n2)CCNCC3)cc1` yielded a logD of 0.1. The Papp in the data set “in vitro [2]” was 13 ×10⁻⁶ cm/s. The affinity in data set [3], expressed as Ki, was 2700 nM. Moreover, the efflux ratio in the data set on MDR1 came to 1. At 5-HT2B receptor, the maximal response (Emax) at 10 µM is 3%. The same compound returned a CLH in data set [6] of under 7000 µL/min/mg.

`CC(c1ccccc1)c1cc2c(nn1)CCNCC2` (stereo in doubt; 15g): the logD in the data set “physchem” was found to be 0.4. Further, the microsomal CLint in the data set “in vitro [1]” was under 8 µL/min/mg. In addition, in the data set “in vitro [2]”, the Papp was determined as 13 ×10⁻⁶ cm/s. Besides, the Ki in data set [3] stood at 200 nM. Besides, the efflux ratio with MDR1 worked out at 1.8. For the same compound, at 5-HT2B receptor, the Emax at 10 µM came out at 36%. In data set [5], this compound registered an EC50 of 190 nM.

With `c1ccc(Cc2nnc3n2CCNCC3)cc1`, the logD in the data set “physchem” is -0.3. In addition, the Papp in the data set “in vitro [2]” was 2 ×10⁻⁶ cm/s. In addition, in data set [3], the Ki is over 10000 nM. In addition, in the data set with MDR1, the efflux ratio was determined as 1.3. This compound also returned an Emax at 10 µM at 5-HT2B receptor of 0%. In [5], the EC50 is over 10000 nM. Also, the CLH in [6] was under 8000 µL/min/mg.
